Read-outs that look alike come from different tables or passages of the source.
What was measured:
[1] = tested on: CYPs 1A2, 2B6, 2C8, 2C9, 2C19, 2D6, 2E1, and 3A4; assay: Initial inhibition screen at 1 or 10 μM, panel of major hepatic P450 enzymes; type: in vitro ADME, human; settings: enzymes other than CYPs 2C9 and 3A4
CYP2C9 and CYP3A4 = assay: IC50,u / Ki,u summarised across all CYP2C9 and CYP3A4 enzyme-substrate pairs; type: in vitro ADME; settings: human, pH 7.4; both recombinant enzyme microsomes and HLM; read-out: IC50,u against CYPs 2C9 and 3A4
Protocol: Reactions were preincubated at 37°C for 3 minutes before initiating with an NADPH-regenerating system. Incubation times were 5 – 30 minutes for recombinant P450 microsomes (Supplemental Table 1) and 10 minutes for HLM. […] Approximately 30 μL of the supernatant was transferred to an ultraperformance liquid chromatography (UPLC) vial for analysis. To reduce nonspecific binding of cannabinoids, all incubations were performed using low-binding 0.6-mL tubes. Probe substrates were used at concentrations near their Michaelis-Menten constants ( Km ) to minimize off-target interactions.[13],[20]–[25]
Initial screening studies were performed using recombinant P450-overexpressing microsomes and 1 or 10 μM cannabinoid concentrations and validated using HLM. […] All determinations were performed in triplicate for reproducibility.
To determine Ki values for each P450 enzyme, substrate and inhibitor concentrations were selected based on known Km and IC50 values. […] Internal standards (deuterated metabolites) were used to normalize metabolite peak areas. Lineweaver–Burk plots ( 1/v vs 1/S ) were used to characterize inhibition type. […] Reaction velocity ( v ) refers to the rate of metabolite formation, calculated by dividing the metabolite peak area by the internal standard peak area for a given reaction. […]

CB1 receptors = tested on: CB1 receptors; set-up: method as in PMID 10633038; settings: partial agonist; cited from earlier work
CB2 receptors = tested on: CB2 receptors; set-up: method as in PMID 10633038; settings: partial agonist; cited from earlier work
[2] = cited from earlier work
[3] = set by similarity to Δ9-THC; cited from earlier work
CYP2C9 [4] = target: T1, CYP2C9 (Homo sapiens, UniProt P11712); assay: IC50 shift assay in recombinant CYP2C9 microsomes; type: in vitro ADME; set-up: made in house; settings: recombinant CYP2C9-overexpressing microsomes, probe diclofenac (4′-hydroxylation), 4′-hydroxylation of diclofenac, rec CYP2C9, 30-min preincubation minus vs plus NADPH, mean ± SD
Protocol: (§1) To characterize inhibition type, IC50 shift studies were performed using recombinant P450-overexpressing microsomes. Assays were preincubated at 37°C for 30 minutes with cannabinoid with or without NADPH in the absence of a probe substrate. After preincubation, substrate was added and incubated for 30 minutes. IC50 values were calculated as mentioned above using GraphPad Prism 10.0.
(§2) IC50shift=IC50with30-minpreincubationminusNADPH/IC50with30-minpreincubationplusNADPH

CYP3A4 [5] = target: T2, CYP3A4 (Homo sapiens, UniProt P08684); assay: IC50 shift assay in recombinant CYP3A4 microsomes; type: in vitro ADME; set-up: made in house; settings: recombinant CYP3A4-overexpressing microsomes, probe midazolam (1′-hydroxylation), 1′-hydroxylation of midazolam, rec CYP3A4, 30-min preincubation minus vs plus NADPH, mean ± SD
Protocol: as §1, §2

CYP2C9 [6] = target: T1, CYP2C9; assay: Inhibition of recombinant CYP2C9-overexpressing microsomes (diclofenac and warfarin probes); type: in vitro ADME; set-up: made in house; host or cells: HEK293 cells (microsomal fraction); settings: for inhibition mechanism (Lineweaver–Burk): recombinant P450 microsomes and HLM, consistent profiles; for IC50: IC50,u, rec CYP2C9 microsomes; for IC50 / Ki: unbound, mean ± SD; for Ki: Ki,u, rec CYP2C9
CYP3A4 [7] = target: T2, CYP3A4; assay: Inhibition of recombinant CYP3A4-overexpressing microsomes (midazolam probe); type: in vitro ADME; set-up: made in house; host or cells: HEK293 cells (microsomal fraction)
CYP2C9 [8] = target: T1, CYP2C9; assay: Inhibition of CYP2C9 activity in pooled human liver microsomes (diclofenac and warfarin probes); type: in vitro ADME; set-up: made in house; host or cells: HEK293 cells (microsomal fraction); settings: HLM, unbound, adjusted with fu,inc, mean ± SD; for IC50: IC50,u; for Ki: Ki,u
CYP3A4 [9] = target: T2, CYP3A4; assay: Inhibition of CYP3A4 activity in pooled human liver microsomes (midazolam probe); type: in vitro ADME; set-up: made in house; host or cells: HEK293 cells (microsomal fraction)
From the text: V5-tagged human P450 enzymes (CYPs 1A2, 2B6, 2C8, 2C9, 2C19, 2D6, 2E1, and 3A4) were cloned and overexpressed in HEK293 cells and microsomal fractions were isolated by differential centrifugation as previously described,[19] with expression monitored by western blot analysis. An anti-V5-tagged antibody (1:1000) and an anti-calnexin polyclonal rabbit antibody (1:1000) together with an anti-rabbit IgG, HRP-linked antibody (1:5000) were used to probe V5 and calnexin, respectively (Supplemental Fig. 1). Briefly, microsomes (25 μg) were electrophoresed on a 10% SDS–polyacrylamide gel and proteins were transferred to polyvinylidene difluoride membranes using a iBlot Gel Transfer Stacks polyvinylidene difluoride, Regular kit (Catalog No. IB401001). […] Calnexin bands served as the loading control for microsomal protein samples, whereas V5-HRP bands indicated the expression of each P450 enzyme, which was not detected in microsomes from parental HEK293 cells. Microsomal protein quantified using the BCA protein assay following the manufacturer’s instructions. […]
Metabolites were quantified using a Waters Acquity UPLC system coupled to a Xevo TQD triple-quadrupole mass spectrometer (Waters). […]
The percent activity for a given reaction was calculated by comparing metabolite formation between inhibitor-treated incubations and vehicle controls, as detailed below. […]

CYP2C9 [10] = target: T1, CYP2C9; assay: Initial inhibition screen at 1 or 10 μM, CYP2C9 (recombinant microsomes and HLM); type: in vitro ADME; set-up: made in house; host or cells: HEK293 cells (microsomal fraction); settings: 10 μM cannabinoid; recombinant P450-overexpressing microsomes as well as HLM
CYP3A4 [11] = target: T2, CYP3A4; assay: Initial inhibition screen at 1 or 10 μM, CYP3A4 (recombinant microsomes and HLM); type: in vitro ADME; set-up: made in house; host or cells: HEK293 cells (microsomal fraction)

T1 sequence (P11712 whole entry): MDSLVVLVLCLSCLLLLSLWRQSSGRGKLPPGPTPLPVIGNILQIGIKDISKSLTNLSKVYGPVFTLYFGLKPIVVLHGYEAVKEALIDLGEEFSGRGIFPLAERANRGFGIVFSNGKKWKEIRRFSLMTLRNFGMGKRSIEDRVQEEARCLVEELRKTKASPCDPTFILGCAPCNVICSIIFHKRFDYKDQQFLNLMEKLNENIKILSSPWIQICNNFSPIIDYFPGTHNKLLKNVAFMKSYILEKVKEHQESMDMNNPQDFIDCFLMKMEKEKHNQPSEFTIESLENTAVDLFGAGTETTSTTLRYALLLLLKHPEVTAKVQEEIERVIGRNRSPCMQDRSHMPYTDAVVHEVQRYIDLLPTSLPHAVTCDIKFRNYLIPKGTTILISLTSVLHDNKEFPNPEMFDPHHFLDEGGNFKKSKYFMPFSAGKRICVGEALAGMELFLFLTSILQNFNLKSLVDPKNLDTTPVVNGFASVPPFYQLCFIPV
T2 sequence (P08684 whole entry): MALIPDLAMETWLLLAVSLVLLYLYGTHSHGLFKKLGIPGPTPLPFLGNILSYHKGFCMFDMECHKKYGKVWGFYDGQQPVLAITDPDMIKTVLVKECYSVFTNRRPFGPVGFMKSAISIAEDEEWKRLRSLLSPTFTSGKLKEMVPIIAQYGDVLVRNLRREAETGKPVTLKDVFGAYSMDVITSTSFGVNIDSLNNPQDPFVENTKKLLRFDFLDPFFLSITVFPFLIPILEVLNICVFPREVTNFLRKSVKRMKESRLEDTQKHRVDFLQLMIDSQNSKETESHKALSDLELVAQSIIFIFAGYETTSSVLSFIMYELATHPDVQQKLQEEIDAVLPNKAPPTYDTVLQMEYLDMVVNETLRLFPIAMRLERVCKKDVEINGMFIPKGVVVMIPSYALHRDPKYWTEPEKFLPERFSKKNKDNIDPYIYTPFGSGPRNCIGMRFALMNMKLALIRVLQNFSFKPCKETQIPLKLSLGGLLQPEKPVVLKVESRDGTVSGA

In the case of CCCCCc1cc(O)c2c(c1)OC(C)(C)C1CC=C(C)CC21 (centres unmarked) [Δ8-THC, Δ8-Tetrahydrocannabinol], the “inhibition of other major hepatic P450 enzymes tested” value [1] is listed as “Minimal or no inhibition”, the IC50 (CYP2C9 and CYP3A4) is listed as < 500 nM and the “potency relative to Δ9-THC” value (CB1 receptors) is listed as “approximately half”. For the same compound, the “potency relative to Δ9-THC” value (CB2 receptors) was “approximately half”, the Cmax ([2]; oral Δ8-THC dose 10 mg) was 7.9 nM and the Cmax ([2]; oral Δ8-THC dose 20 mg) was 17.8 nM. The Cmax ([2]; oral Δ8-THC dose 40 mg) was 48 nM, the “fu,p (unbound fraction of drug in plasma)” value [3] was 0.03 and the IC50 shift at 30 min (CYP2C9 [4]) was 1.24 ± 0.34. For the same compound, the IC50 shift at 30 min (CYP3A4 [5]) was 0.85 ± 0.09, the “Inhibition Type” value (CYP2C9 [6]; 4′-hydroxylation of diclofenac, cell merged over rec CYP2C9 and HLM) was “N” and the “inhibition mechanism (Lineweaver–Burk)” value (CYP2C9 [6]; CYP2C9-mediated diclofenac metabolism) was “noncompetitive inhibition”. For the same compound, the “inhibition mechanism (Lineweaver–Burk)” value (CYP2C9 [6]; CYP2C9-mediated warfarin metabolism) was “competitive inhibition”, the IC50 (CYP2C9 [6]; diclofenac -> 4′-hydroxydiclofenac, adjusted with fu,inc of Δ9-THC / 11-OH-Δ9-THC, 3 experiments) was 70 ± 10 nM and the IC50 (CYP2C9 [6]; warfarin -> 7′-hydroxywarfarin, adjusted with fu,inc) was 200 ± 30 nM. The Ki (CYP2C9 [6]; 4′-hydroxylation of diclofenac, adjusted with fu,inc) was 260 ± 10 nM, the Ki (CYP2C9 [6]; 7′-hydroxylation of warfarin, adjusted with fu,inc) was 90 ± 40 nM and the Ki (CYP2C9 [6]; human, recombinant CYP2C9-overexpressing HEK293 microsomes, pH 7.4, probe warfarin (7′-hydroxylation), 7′-hydroxylation of warfarin, adjusted with fu,inc) was 160 ± 40 nM. For the same compound, the IC50 (CYP3A4 [7]) was 440 ± 140 nM, the Ki (CYP3A4 [7]) was 860 ± 280 nM and the “Inhibition Type” value (CYP3A4 [7]; 1′-hydroxylation of midazolam, cell merged over rec CYP3A4 and HLM) was “N”. For the same compound, the “inhibition mechanism (Lineweaver–Burk)” value (CYP3A4 [7]; CYP3A4-mediated midazolam metabolism, recombinant P450 microsomes and HLM, consistent profiles) was “noncompetitive inhibition”, the IC50 (CYP2C9 [8]; diclofenac -> 4′-hydroxydiclofenac) was 230 ± 30 nM and the IC50 (CYP2C9 [8]; warfarin -> 7′-hydroxywarfarin) was 440 ± 140 nM. The Ki (CYP2C9 [8]; 4′-hydroxylation of diclofenac) was 320 ± 60 nM, the Ki (CYP2C9 [8]; 7′-hydroxylation of warfarin) was 230 ± 90 nM and the IC50 (CYP3A4 [9]) was 480 ± 110 nM. The Ki (CYP3A4 [9]) was 520 ± 20 nM, the “reduction of 4′-hydroxydiclofenac formation” value (CYP2C9 [10]) was > 40% and the “reduction of 7′-hydroxywarfarin formation” value (CYP2C9 [10]) was > 40%. For the same compound, the “reduction of 1′-hydroxymidazolam formation” value (CYP3A4 [11]; 10 μM cannabinoid, recombinant P450-overexpressing microsomes as well as HLM) was > 40% and the “inhibition of CYP3A4 with testosterone as substrate” value (CYP3A4 [11]; substrate-specific: midazolam vs testosterone) was “inhibition observed for midazolam but not testosterone”.

Reference: PMC12597552 (Drug metabolism and disposition: the biological fate of …, 2025)
